Reference: patent publication US8658668B2, “PI3 kinase/mTOR dual inhibitor” (Eli Lilly and Company, priority 2011, dated 2014)

Legend:
[1] = tested on: BXF 1228 human tumor xenograft cells; assay: Oncotest tumor clonogenic assay, BXF 1228; type: cell-based; settings: colony formation, Bladder BXF 1228, transitional cell carcinoma, wd, read-out: Absolute IC50
[2] = tested on: BXF 1218 human tumor xenograft cells; assay: Oncotest tumor clonogenic assay, BXF 1218; type: cell-based; settings: colony formation, Bladder BXF 1218, transitional cell carcinoma, read-out: Absolute IC50
[3] = tested on: GXF 209 human tumor xenograft cells; assay: Oncotest tumor clonogenic assay, GXF 209; type: cell-based; settings: colony formation, Gastric GXF 209, signet-ring cell carcinoma, ud, read-out: Absolute IC50
[4] = tested on: RXF 486 human tumor xenograft cells; assay: Oncotest tumor clonogenic assay, RXF 486; type: cell-based; settings: colony formation, Renal RXF 486, hypernephroid adeno carcinoma, clear cell, read-out: Absolute IC50
[5] = tested on: OVXF 550 human tumor xenograft cells; assay: Oncotest tumor clonogenic assay, OVXF 550; type: cell-based; settings: colony formation, Ovary OVXF 550, carcinoma, read-out: Absolute IC50
[6] = tested on: pT389 p70S6K; assay: In vivo target inhibition in U87MG tumors, pT389 p70S6K; settings: Mus musculus, U-87 MG; for inhibition at 0.5 mg/kg: 0.5 mg/kg oral; for inhibition at 1.5 mg/kg: 1.5 mg/kg oral; for inhibition at 3 mg/kg: 3 mg/kg oral; for inhibition at 6 mg/kg: 6 mg/kg oral; for inhibition at 10 mg/kg: 10 mg/kg oral; for inhibition at 12 mg/kg: 12 mg/kg oral
Procedure: Implant U87MG human glioblastoma cells (5×10^6) subcutaneously into the flank of athymic nude mice in 0.2 mL of matrigel. Ten days post-implantation, dose mice orally according to a time course, single dose/single time point, or dose response protocol for the determination of TMED50 (threshold minimum effective dose). Flash freeze tumors at harvest and collect blood for the determination of parent compound plasma exposure and the calculation of TMEC50 (threshold minimum effective concentration) in the case of dose response studies. Homogenize tumors in 500 μL of XY Lysis Buffer (10 μg/mL Leupeptin, 10 μg/mL Trypsin-Chymotrypsin Inhibitor, 10 μg/mL Tosyl phenyl-alanyl chloromethyl ketone, 10 μg/mL Aprotinin, 60 mM Beta-Glycerol Phosphate, 1% Triton X100, 25 mM Tris pH 7.5, 2.5 mM Pyrophosphate, 150 mM NaCl, 2 mM p-tosyl-L-arginine methyl ester, 15 mM para-nitrophenyl phosphate, 5 mM benzamidine, 1 mM sodium vanadate, 10 mM sodium fluoride, 50 μg/mL phenyl-methane sulfonyl fluoride, 1 mM 1,4-dithiothreitol (DTT), 15 mM EDTA pH 8.0, 5 mM EGTA pH 8.0, 1 μM Microcystin, 1 μM Okadaic Acid, and 1 Roche Complete protease inhibitor mini-tablet per 10 mL) using RNase Free Pellet Pestle (Kimble-Kontes). Aliquot lysates and either assay immediately or store at −80° C. for later testing. Use the multiplex format of Meso Scale Discovery (Gaithersburg, Md.) ELISA technology and measure in vivo target inhibition of PI3K and mTOR to assess effects on phosphorylation of the threonine 308 site of AKT, a downstream effector of PI3K; phosphorylation on the threonine 389 site of p70 S6K and on the serine 240/244 site of S6RP, downstream effectors of mTORC1; phosphorylation of the serine 473 site of AKT, a downstream effector of mTORC2. Add 20 μg of lysate to carbon electrode containing 96-well plates pre-spotted with the appropriate capture antibodies. Probe the protein of interest using a ruthenium labeled detection antibody. Pass current over the electrode in the presence of read buffer containing the co-reactant TPA, and quantitate and record the light generated by electro-chemiluminescence with the MSD Sector 6000 instrument. Calculate percent inhibitions relative to the vehicle control group and perform ANOVA analysis using the JMP software package for the determination of statistical significance.

[7] = tested on: A2780; assay: Cell proliferation assay (CellTiter-Glo), A2780; type: cell-based; settings: Homo sapiens, A2780, 72 h
Procedure: Plate cells in a 96-well plate at 2000 cells/well in 100 μL of cell specific medium (for U87MG use DMEM, 10% FBS, 25 mM 4-(2-hydroxyethyl)-1-piperazineethanesulfonic acid (HEPES), 1.0 mM sodium pyruvate, and 0.1 mM Non Essential Amino Acids (ATCC Cat.#30-2002); for HT1080 use Eagle's MEM, 10% FBS (ATCC Cat.#30-2003); for H1975, A2780, SJSA-1 and 786-O use RPMI 1640, 10% FBS (ATCC Cat.#30-2001); for A204 use McCoy's 5A, 10% FBS (ATCC Cat.#30-2007) except in column 1 use medium only as the blank control. Incubate the plates overnight at 37° C. and 5% CO2. On the next day, prepare compound stocks at 1 mM in DMSO and serially dilute in DMSO in a 96-well round bottom polypropylene plate. Assay compounds at 10 concentrations in duplicate, 4 compounds per plate.
Transfer 4 μL of the DMSO serial dilutions to a 96 well plate and add 196 μL of culture medium to create a 10× stock for dosing. Gently transfer 11 μL of each dosing stock to the corresponding well of the cell plate resulting in a 0.2% DMSO concentration and a 111 μL final volume. […]
Prepared the CellTiter-Glo reagent (Promega, Cat: G7571) and add 100 µL to each well after the incubation is complete, homogenize the cells by mixing on an orbital shaker for 2 min and then incubate at RT for 10 min to allow the luminescent signal to stabilize. Record the luminescent raw data with a Wallac Victor V plate reader. […]

`CO[C@@H](C)Cn1c(=O)n(C)c2cnc3ccc(-c4cncc(C(C)(C)O)c4)cc3c21` [Example 1, 8-[5-(1-Hydroxy-1-methylethyl)pyridin-3-yl]-1-[(2S)-2-methoxypropyl]-3-methyl-1,3-dihydro-2H-imidazo[4,5-c]quinolin-2-one] showed an IC50 [1] of 31 nM, an IC50 [2] of 48 nM and an IC50 [3] of 184 nM. It also gave an IC50 [4] of 112 nM, an IC50 [5] of 28 nM and an inhibition at 0.5 mg/kg ([6]; 0.5 hr post dose) of 62%. It also gave an inhibition at 0.5 mg/kg ([6]; 4 hr post dose) of 7%, an inhibition at 1.5 mg/kg ([6]; 0.5 hr post dose) of 84% and an inhibition at 1.5 mg/kg ([6]; 4 hr post dose) of 38%. The inhibition at 3 mg/kg ([6]; 0.25 hr post dose) was 77%, the inhibition at 3 mg/kg ([6]; 0.5 hr post dose) was 89% and the inhibition at 3 mg/kg ([6]; 1 hr post dose) was 89%. The inhibition at 3 mg/kg ([6]; 3 hr post dose) was 77%, the inhibition at 3 mg/kg ([6]; 4 hr post dose) was 64% and the inhibition at 6 mg/kg ([6]; 0.25 hr post dose) was 88%. For the same compound, the inhibition at 6 mg/kg ([6]; 0.5 hr post dose) was 91%, the inhibition at 6 mg/kg ([6]; 1 hr post dose) was 90% and the inhibition at 6 mg/kg ([6]; 2 hr post dose) was 87%. For the same compound, the inhibition at 6 mg/kg ([6]; 4 hr post dose) was 68%, the inhibition at 6 mg/kg ([6]; 6 hr post dose) was 61% and the inhibition at 6 mg/kg ([6]; 12 hr post dose) was 14%. The inhibition at 10 mg/kg ([6]; 0.5 hr post dose) was 93%, the inhibition at 10 mg/kg ([6]; 1 hr post dose) was 92% and the inhibition at 10 mg/kg ([6]; 2 hr post dose) was 92%. The inhibition at 10 mg/kg ([6]; 4 hr post dose) was 91%, the inhibition at 10 mg/kg ([6]; 8 hr post dose) was 55% and the inhibition at 12 mg/kg ([6]; 0.5 hr post dose) was 92%. For the same compound, the inhibition at 12 mg/kg ([6]; 4 hr post dose) was 90% and the IC50 [7] was 90 nM.
